This note sets out measurements from patent US20230372498A1, “PLK1 SELECTIVE DEGRADATION INDUCING COMPOUND” (UPPTHERA, priority 2020, published 2023).

Broadly, the DC50 is the concentration at which degradation of the target reaches its halfway point. By Dmax is commonly meant the greatest extent of degradation seen.

In this experiment the target is T1, PLK1 (Homo sapiens, UniProt P53350).
T1 construct: endogenous in cells; host or cells: HeLa
Kind of experiment: PLK1 protein degradation in HeLa cells, Western blotting (PLK1/GAPDH ratio). It counts as cell-based. The note with it: 6 hours compound incubation; for DC50: measured only if the grade of Dmax is A or B; for Dmax: thymidine block and release, 10 points three-fold from 3 μM, PLK1 to GAPDH ratio, read-out: Dmax. Summed up: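 Thymidine-synchronised HeLa cells (2 mM, 24 h) released 4 h into complete medium, then treated 6 h with compound in 10-point 3-fold dilutions from 3 μM. RIPA lysates (15 μg protein) run on SDS-PAGE; PLK1 Western blot normalised to GAPDH.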

T1 sequence (P53350 whole entry): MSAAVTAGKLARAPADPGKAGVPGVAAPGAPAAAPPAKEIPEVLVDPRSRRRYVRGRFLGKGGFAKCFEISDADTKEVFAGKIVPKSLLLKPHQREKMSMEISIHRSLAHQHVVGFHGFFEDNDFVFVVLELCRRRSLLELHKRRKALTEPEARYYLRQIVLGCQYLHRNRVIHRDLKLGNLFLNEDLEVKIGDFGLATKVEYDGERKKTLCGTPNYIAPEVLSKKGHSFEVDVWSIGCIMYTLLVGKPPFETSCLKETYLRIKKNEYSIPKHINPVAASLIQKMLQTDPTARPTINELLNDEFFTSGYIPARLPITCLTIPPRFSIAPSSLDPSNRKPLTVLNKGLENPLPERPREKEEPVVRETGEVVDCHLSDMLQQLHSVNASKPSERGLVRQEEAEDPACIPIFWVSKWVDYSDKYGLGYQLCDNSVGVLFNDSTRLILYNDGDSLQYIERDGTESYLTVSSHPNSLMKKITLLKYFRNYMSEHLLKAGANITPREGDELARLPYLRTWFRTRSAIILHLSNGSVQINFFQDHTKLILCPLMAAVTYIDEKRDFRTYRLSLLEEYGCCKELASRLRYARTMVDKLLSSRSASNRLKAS

As to `COc1cc(C(=O)NC2CCN(CCOCCOCCOCCNC(=O)COc3cccc4c3C(=O)N(C3CCC(=O)NC3=O)C4=O)CC2)c(F)cc1Nc1ncc2c(n1)N(C1CCCC1)CC(F)(F)C(=O)N2C` (stereo not shown) [Compound 57, 4-((9-cyclopentyl-7,7-difluoro-5-methyl-6-oxo-6,7,8,9-tetrahydro-5H-pyrimido[4,5-b][1,4]diazepin-2-yl)amino)-N-(1-(1-((2-(2,6-dioxopiperidin-3-yl)-1,3-dioxoisoindolin-4-yl)oxy)-2-oxo-6,9,12-trioxa-3-azatetradecan-14-yl)piperidin-4-yl)-2-fluoro-5-methoxybenzamide], the DC50 is not above 500 nM and the Dmax is 60 to 80%.
Consider `COc1cc(C(=O)NC2CCN(CCOCCOCCOCCOCCOCCOCCOCCNC(=O)COc3cccc4c3C(=O)N(C3CCC(=O)NC3=O)C4=O)CC2)c(F)cc1Nc1ncc2c(n1)N(C1CCCC1)CC(F)(F)C(=O)N2C` (stereo not shown) [Compound 58, 4-((9-cyclopentyl-7,7-difluoro-5-methyl-6-oxo-6,7,8,9-tetrahydro-5H-pyrimido[4,5-b][1,4]diazepin-2-yl)amino)-N-(1-(1-((2-(2,6-dioxopiperidin-3-yl)-1,3-dioxoisoindolin-4-yl)oxy)-2-oxo-6,9,12,15,18,21,24-heptaoxa-3-azahexacosan-26-yl)piperidin-4-yl)-2-fluoro-5-methoxybenzamide], for which the greatest degradation seen (Dmax) is less than 60%.
Still for that read-out and setting: for `COc1cc(C(=O)NC2CCN(CCCCCNC(=O)COc3cccc4c3C(=O)N(C3CCC(=O)NC3=O)C4=O)CC2)c(F)cc1Nc1ncc2c(n1)N(C1CCCC1)CC(F)(F)C(=O)N2C` (stereo not shown) [Compound 59, 4-((9-cyclopentyl-7,7-difluoro-5-methyl-6-oxo-6,7,8,9-tetrahydro-5H-pyrimido[4,5-b][1,4]diazepin-2-yl)amino)-N-(1-(5-(2-((2-(2,6-dioxopiperidin-3-yl)-1,3-dioxoisoindolin-4-yl)oxy)acetamido)pentyl)piperidin-4-yl)-2-fluoro-5-methoxybenzamide] the value was less than 60%.
Turning to `COc1cc(C(=O)NC2CCN(CCC(=O)NCCCCCCCNC(=O)COc3cccc4c3C(=O)N(C3CCC(=O)NC3=O)C4=O)CC2)c(F)cc1Nc1ncc2c(n1)N(C1CCCC1)CC(F)(F)C(=O)N2C` (stereo not shown) [Compound 60, 4-((9-cyclopentyl-7,7-difluoro-5-methyl-6-oxo-6,7,8,9-tetrahydro-5H-pyrimido[4,5-b][1,4]diazepin-2-yl)amino)-N-(1-(3-((7-(2-((2-(2,6-dioxopiperidin-3-yl)-1,3-dioxoisoindolin-4-yl)oxy)acetamido)heptyl)amino)-3-oxopropyl)piperidin-4-yl)-2-fluoro-5-methoxybenzamide], the 50% degradation concentration (DC50) was not above 50 nM and the Dmax was not below 80%.
Take `COc1cc(C(=O)NC2CCN(Cc3cccc(CNC(=O)COc4cccc5c4C(=O)N(C4CCC(=O)NC4=O)C5=O)c3)CC2)c(F)cc1Nc1ncc2c(n1)N(C1CCCC1)CC(F)(F)C(=O)N2C` (stereo not shown) [Compound 61, 4-((9-cyclopentyl-7,7-difluoro-5-methyl-6-oxo-6,7,8,9-tetrahydro-5H-pyrimido[4,5-b][1,4]diazepin-2-yl)amino)-N-(1-(3-((2-((2-(2,6-dioxopiperidin-3-yl)-1,3-dioxoisoindolin-4-yl)oxy)acetamido)methyl)benzyl)piperidin-4-yl)-2-fluoro-5-methoxybenzamide]: the DC50 is not above 50 nM and the Dmax is 60 to 80%.
For the compound `COc1cc(C(=O)NC2CCN(Cc3cncc(CNC(=O)COc4cccc5c4C(=O)N(C4CCC(=O)NC4=O)C5=O)c3)CC2)c(F)cc1Nc1ncc2c(n1)N(C1CCCC1)CC(F)(F)C(=O)N2C` (stereo not shown) [Compound 62, 4-((9-cyclopentyl-7,7-difluoro-5-methyl-6-oxo-6,7,8,9-tetrahydro-5H-pyrimido[4,5-b][1,4]diazepin-2-yl)amino)-N-(1-((5-((2-((2-(2,6-dioxopiperidin-3-yl)-1,3-dioxoisoindolin-4-yl)oxy)acetamido)methyl)pyridin-3-yl)methyl)piperidin-4-yl)-2-fluoro-5-methoxybenzamide], the DC50 is not above 50 nM and the maximal degradation (Dmax) is 60 to 80%.
The matching figures for `COc1cc(C(=O)NC2CCN(CCCCCCCc3cccc(CNC(=O)COc4cccc5c4C(=O)N(C4CCC(=O)NC4=O)C5=O)c3)CC2)c(F)cc1Nc1ncc2c(n1)N(C1CCCC1)CC(F)(F)C(=O)N2C` (stereo not shown) [Compound 63, 4-((9-cyclopentyl-7,7-difluoro-5-methyl-6-oxo-6,7,8,9-tetrahydro-5H-pyrimido[4,5-b][1,4]diazepin-2-yl)amino)-N-(1-(7-(3-((2-((2-(2,6-dioxopiperidin-3-yl)-1,3-dioxoisoindolin-4-yl)oxy)acetamido)methyl)phenyl)heptyl)piperidin-4-yl)-2-fluoro-5-methoxybenzamide]: not above 50 nM and not below 80%.
The matching figures for `COc1cc(C(=O)NC2CCN(CCCCCCCc3cncc(CNC(=O)COc4cccc5c4C(=O)N(C4CCC(=O)NC4=O)C5=O)c3)CC2)c(F)cc1Nc1ncc2c(n1)N(C1CCCC1)CC(F)(F)C(=O)N2C` (stereo not shown) [Compound 64, 4-((9-cyclopentyl-7,7-difluoro-5-methyl-6-oxo-6,7,8,9-tetrahydro-5H-pyrimido[4,5-b][1,4]diazepin-2-yl)amino)-N-(1-(7-(5-((2-((2-(2,6-dioxopiperidin-3-yl)-1,3-dioxoisoindolin-4-yl)oxy)acetamido)methyl)pyridin-3-yl)heptyl)piperidin-4-yl)-2-fluoro-5-methoxybenzamide]: not above 50 nM and not below 80%.
On to `COc1cc(C(=O)NC2CCN(CC3CCN(c4cccc5c4C(=O)N(C4CCC(=O)NC4=O)C5=O)CC3)CC2)c(F)cc1Nc1ncc2c(n1)N(C1CCCC1)CC(F)(F)C(=O)N2C` (stereo not shown) [Compound 65, 4-((9-cyclopentyl-7,7-difluoro-5-methyl-6-oxo-6,7,8,9-tetrahydro-5H-pyrimido[4,5-b][1,4]diazepin-2-yl)amino)-N-(1-((1-(2-(2,6-dioxopiperidin-3-yl)-1,3-dioxoisoindolin-4-yl)piperidin-4-yl)methyl)piperidin-4-yl)-2-fluoro-5-methoxybenzamide], for which the 50% degradation concentration (DC50) is not above 50 nM and the Dmax is not below 80%.
The matching figures for `COc1cc(C(=O)NC2CCN(CCN3CCN(c4cccc5c4C(=O)N(C4CCC(=O)NC4=O)C5=O)CC3)CC2)c(F)cc1Nc1ncc2c(n1)N(C1CCCC1)CC(F)(F)C(=O)N2C` (stereo not shown) [Compound 66, 4-((9-cyclopentyl-7,7-difluoro-5-methyl-6-oxo-6,7,8,9-tetrahydro-5H-pyrimido[4,5-b][1, 4]diazepin-2-yl)amino)-N-(1-(2-(4-(2-(2,6-dioxopiperidin-3-yl)-1,3-dioxoisoindolin-4-yl)piperazin-1-yl)ethyl)piperidin-4-yl)-2-fluoro-5-methoxybenzamide]: not above 500 nM and 60 to 80%.
For the compound `COc1cc(C(=O)NC2CCN(CC3CCN(c4ccc5c(c4)C(=O)N(C4CCC(=O)NC4=O)C5=O)CC3)CC2)c(F)cc1Nc1ncc2c(n1)N(C1CCCC1)CC(F)(F)C(=O)N2C` (stereo not shown) [Compound 67, 4-((9-cyclopentyl-7,7-difluoro-5-methyl-6-oxo-6,7,8,9-tetrahydro-5H-pyrimido[4,5-b][1,4]diazepin-2-yl)amino)-N-(1-((1-(2-(2,6-dioxopiperidin-3-yl)-1,3-dioxoisoindolin-5-yl)piperidin-4-yl)methyl)piperidin-4-yl)-2-fluoro-5-methoxybenzamide], the DC50 is not above 500 nM and the greatest degradation seen (Dmax) was in the range of 60 to 80%.
In the same order, the values of `COc1cc(C(=O)NC2CCN(CCN3CCN(c4ccc5c(c4)C(=O)N(C4CCC(=O)NC4=O)C5=O)CC3)CC2)c(F)cc1Nc1ncc2c(n1)N(C1CCCC1)CC(F)(F)C(=O)N2C` (stereo not shown) [Compound 68, 4-((9-cyclopentyl-7,7-difluoro-5-methyl-6-oxo-6,7,8,9-tetrahydro-5H-pyrimido[4,5-b][1,4]diazepin-2-yl)amino)-N-(1-(2-(4-(2-(2,6-dioxopiperidin-3-yl)-1,3-dioxoisoindolin-5-yl)piperazin-1-yl)ethyl)piperidin-4-yl)-2-fluoro-5-methoxybenzamide] are not above 500 nM and 60 to 80%.
The matching figures for `COc1cc(C(=O)NC2CCN(C(=O)N3CCN(c4cccc5c4C(=O)N(C4CCC(=O)NC4=O)C5=O)CC3)CC2)c(F)cc1Nc1ncc2c(n1)N(C1CCCC1)CC(F)(F)C(=O)N2C` (stereo not shown) [Compound 69, 4-((9-cyclopentyl-7,7-difluoro-5-methyl-6-oxo-6,7,8,9-tetrahydro-5H-pyrimido[4,5-b][1,4]diazepin-2-yl)amino)-N-(1-(4-(2-(2,6-dioxopiperidin-3-yl)-1,3-dioxoisoindolin-4-yl)piperazine-1-carbonyl)piperidin-4-yl)-2-fluoro-5-methoxybenzamide]: not above 50 nM and not below 80%.
With `COc1cc(C(=O)NC2CCN(C(=O)CN3CCN(c4cccc5c4C(=O)N(C4CCC(=O)NC4=O)C5=O)CC3)CC2)c(F)cc1Nc1ncc2c(n1)N(C1CCCC1)CC(F)(F)C(=O)N2C` (stereo not shown) [Compound 70, 4-((9-cyclopentyl-7,7-difluoro-5-methyl-6-oxo-6,7,8,9-tetrahydro-5H-pyrimido[4,5-b][1,4]diazepin-2-yl)amino)-N-(1-(2-(4-(2-(2,6-dioxopiperidin-3-yl)-1,3-dioxoisoindolin-4-yl)piperazin-1-yl)acetyl)piperidin-4-yl)-2-fluoro-5-methoxybenzamide], the 50% degradation concentration (DC50) is not above 500 nM and the Dmax lay within 60 to 80%.
The matching figures for `COc1cc(C(=O)NC2CCN(C(=O)CCN3CCN(c4cccc5c4C(=O)N(C4CCC(=O)NC4=O)C5=O)CC3)CC2)c(F)cc1Nc1ncc2c(n1)N(C1CCCC1)CC(F)(F)C(=O)N2C` (stereo not shown) [Compound 71, 4-((9-cyclopentyl-7,7-difluoro-5-methyl-6-oxo-6,7,8,9-tetrahydro-5H-pyrimido[4,5-b][1,4]diazepin-2-yl)amino)-N-(1-(3-(4-(2-(2,6-dioxopiperidin-3-yl)-1,3-dioxoisoindolin-4-yl)piperazin-1-yl)propanoyl)piperidin-4-yl)-2-fluoro-5-methoxybenzamide]: not above 50 nM and not below 80%.
